Here are results for 14 compounds from patent publication US20250345459A1, “COMPOUND OR SALT THEREOF, LIPID COMPOSITION, PHARMACEUTICAL COMPOSITION, AND DELIVERY CARRIER” (FUJIFILM Corporation, priority 2023, published 2025).

Data set [1] can be described thus: Particle size of EPO mRNA-encapsulating lipid nanoparticles. Conditions: mixed solution PBS. The format is physicochemical. The procedure: (§1) The compounds described in Table 1, the neutral lipid, cholesterol (product name: Cholesterol HP; NIPPON FINE CHEMICAL CO., LTD.), and 1,2-dimyristoyl-rac-glycero-3-(methylpolyoxyethylene 2000) (hereinafter, called DMG-PEG2000) (product name: SUNBRIGHT® GM-020; NOF corporation) were dissolved in ethanol at a molar ratio of ionized lipid:neutral lipid:cholesterol:DMG-PEG2000=50:10:38.5:1.5 mol % such that the total lipid concentration was 12.5 mmol/L, to obtain an oil phase.
(§2) As the neutral lipid, 1,2-distearoyl-sn-glycero-3-phosphocholine (product name: COATSOME® MC-8080; NOF corporation) (hereinafter, DSPC), or L-α-dioleoylphosphatidylethanolamine (hereinafter, DOPE) (product name: COATSOME® MC-8181; NOF corporation) was used.
(§3) EPO mRNA (product name: CleanCap EPO mRNA (5 moU); TriLink) was diluted with 50 mmol/L citrate buffer having a pH 4.0 such that the weight ratio of total lipid concentration to mRNA concentration is about 20:1 to 64:1, thereby obtaining a water phase. Then, the water phase and the oil phase were mixed together using NanoAssemblr (Precision NanoSystems) such that the volume ratio of water phase:oil phase was 3:1. The mixed solution was diluted 2-fold with any of phosphate buffered physiological saline (PBS), water, or a 20 mmol/L Tris buffer solution (pH 7.4) to obtain a dispersion liquid of mRNA lipid nanoparticles. The dispersion liquid was dialyzed with 20 mmol/L Tris buffer solution (pH 7.4) containing 8% sucrose using a dialysis cassette (Slide-A-Lyzer G2, MWCO: 10 kD, Thermo Fisher Scientific) to remove ethanol, thereby obtaining EPO mRNA-encapsulating lipid nanoparticles.
The particle size of the mRNA-encapsulating lipid nanoparticles was measured by 5-fold diluting the dispersion liquid of lipid nanoparticle with phosphate buffered physiological saline (PBS) using a particle size measurement device NanoSaqla (Otsuka Electronics Co., Ltd.).

In another data set the test system is EPO mRNA. The data set is described as follows: mRNA encapsulation rate of mRNA lipid nanoparticles. The format is physicochemical. Conditions: mixed solution PBS. The procedure:
as §1, §2, §3
EPO mRNA was diluted with MilliQ water to prepare a diluted sample in 2-fold dilution series from 100 µg/mL to […], and a calibration curve solution was prepared. 50 μL of the calibration curve solution or the mRNA lipid nanoparticles was mixed with 450 μL of methanol to prepare a measurement solution.
The absorbance of each measurement solution at 260 nm and 330 nm was measured using a UV plate reader (Multiskan Go, Thermo Fisher Scientific), the absorbance at 330 nm was subtracted from the absorbance at 260 nm, and the result was defined as the absorbance of each measurement solution. The total […] nucleic acid concentration was calculated from the calibration curve using the absorbance of each sample measurement solution.
The concentration of the outer water phase nucleic acid was quantified by a standard addition method using a QuanT-iT RiboGreen RNA Assay Kit (Thermo Fisher Scientific). First, a 20× TE buffer included in the above kit was diluted with water, thereby obtaining a 1×TE buffer. TE represents Tris/EDTA (ethylenediaminetetraacetic acid). EPO mRNA was diluted with a TE buffer such that the final concentration was 0 to 400 ng/mL to prepare a nucleic acid diluted series. 10 μL of mRNA lipid nanoparticles diluted 5-fold with TE buffer and 90 µL of a nucleic acid dilution series were mixed in a 96-well plate, 100 μL of a Ribogreen reagent diluted 200-fold with TE buffer was added to each well, and then fluorescence (excitation wavelength: 485 nm, fluorescence wavelength: 535 nm) was measured using a fluorescence plate reader (Infinite 200 Pro M nano+, TECAN). From the obtained results, the outer water phase nucleic acid concentration of each measurement solution was calculated according to the standard addition method.
By using the quantification results of the total mRNA concentration and the mRNA concentration in the outer water phase that were obtained through the above steps, the mRNA encapsulation rate of the mRNA lipid nanoparticles was calculated according to the following Equation. […]

The next data set concerns ICR mice. Kind of data set: EPO protein expression in mice after intravenous EPO mRNA lipid nanoparticles. In kind it is in vivo. Conditions: mRNA 0.1 mg/kg, plasma 6 hours after administration. The procedure:
as §1, §2, §3
The dispersion liquid of mRNA lipid nanoparticles prepared in above <Preparation of EPO mRNA-encapsulating lipid nanoparticles> was intravenously administered to ICR mice at a mRNA dosage of 0.1 mg/kg. 6 hours after the administration, blood was collected from the caudal vena cava, thereby obtaining plasma. The human EPO […] was quantified by using the obtained blood plasma and Erythropoietin (EPO) Human Elisa Kit (Abcam.plc). The quantitative value is described as a relative amount of EPO protein in a case where Comparative Example 1 is 1.

[2] abbreviates: LNP with neutral lipid DSPC, Lipid/Nucleic acid (wt/wt) 20.
Setting [3] is: neutral lipid DSPC, Lipid/Nucleic acid (wt/wt) 20, Comparative Example 1 is 1.
Where [4] appears, read: LNP with neutral lipid DOPE, Lipid/Nucleic acid (wt/wt) 64.
The mark [5] stands for this setting: neutral lipid DOPE, Lipid/Nucleic acid (wt/wt) 64, Comparative Example 1 is 1.

As to `CCCCCCCCN(CCCCCCCCCC(=O)OCC(CCCCCC)CCCCCC)C(=O)OCCN(CCOC(=O)CCCCCCC)CCN(CC)CC` [Comparative Example 1, 2-hexyloctyl 3-ethyl-6-(2-(octanoyloxy)ethyl)-11-octyl-10-oxo-9-oxa-3,6,11-triazahenicosan-21-oate, reference compound], in data set [1] (setting [2]), the “Particle size (nm)” value came out at 206 nm. The “Nucleic acid encapsulation rate (%)” value with EPO mRNA (setting [2]) is recorded as 62%. Also, the “Relative amount of EPO protein (to Comparative Example 1)” value (“Relative amount of EPO protein” below) in the data set with ICR mice (setting [3]) is given as 1.00.

With `CCCCCCCCN(CCCCCCCC)C(=O)OCCN(CCOC(=O)N(CCCCCCCC)CCCCCCCC)CCN(CC)CC` [Example 1, ((2-(diethylamino)ethyl)azanediyl)bis(ethan-2,1-diyl)bis(dioctylcarbamate)], in data set [1] (setting [4]), the “Particle size (nm)” value is on record as 88.6 nm. In addition, in the data set on EPO mRNA (setting [4]), the “Nucleic acid encapsulation rate (%)” value was >99%. Further, the “Relative amount of EPO protein” value with ICR mice (setting [5]) worked out at 21.60.

For `CCCCCCCCN(CCCCC(=O)OCC(CCCCCC)CCCCCC)C(=O)OCCN(CCOC(=O)N(CCCCCCCC)CCCCC(=O)OCC(CCCCCC)CCCCCC)CCN(CC)CC` [Example 2, bis(2-hexyloctyl) 11-(2-(diethylamino)ethyl)-6,16-dioctyl-7,15-dioxo-8,14-dioxa-6,11,16-triazahenicosanedioate], the figures for the “Particle size (nm)” value in data set [1] (setting [4]) and in data set [1] (setting [2]) were 95.6 nm and 82 nm, respectively. In addition, the “Nucleic acid encapsulation rate (%)” value in the data set with EPO mRNA (setting [4]) came out at 99%; in the data set on EPO mRNA (setting [2]) it was 94%. Also, the “Relative amount of EPO protein” value in the data set with ICR mice (setting [5]) was 24.57; with ICR mice (setting [3]) it was 6.70.

Turning to `CCCCCC(CCCCC)COC(=O)CCN(CCCC)C(=O)OCCN(CCOC(=O)N(CCCC)CCC(=O)OCC(CCCCC)CCCCC)CCN(CC)CC` [Example 6, Bis(2-pentylheptyl) 4,14-dibutyl-9-(2-(diethylamino)ethyl)-5,13-dioxo-6,12-dioxa-4,9,14-triazaheptadecanedioate], in data set [1] (setting [2]), the “Particle size (nm)” value is recorded as 183 nm. Moreover, the “Nucleic acid encapsulation rate (%)” value with EPO mRNA (setting [2]) stood at 58%.

Regarding `CCCCCC(CCCCC)COC(=O)CCN(CCCC)C(=O)OCCN(CCCN(CC)CC)CCOC(=O)N(CCCC)CCC(=O)OCC(CCCCC)CCCCC` [Example 7, Bis(2-pentylheptyl) 4,14-dibutyl-9-(3-(diethylamino)propyl)-5,13-dioxo-6,12-dioxa-4,9,14-triazaheptadecanedioate], in data set [1] (setting [2]), the “Particle size (nm)” value is reported as 215 nm. Further, the “Nucleic acid encapsulation rate (%)” value in the data set on EPO mRNA (setting [2]) was found to be 73%.

Consider `CCCCCCCCCC(=O)OCCN(CCOC(=O)CCCCCCCCC)C(=O)OCCN(CCOC(=O)N(CCOC(=O)CCCCCCCCC)CCOC(=O)CCCCCCCCC)CCN(CC)CC` [Example 12, 2-(2-(2-(bis(2-decanoyloxyethyl)carbamoyloxy)ethyl-(2-(diethylamino)ethyl)amino)ethoxycarbonyl-(2-decanoyloxyethyl)amino)ethyl decanoate], for which the “Particle size (nm)” value in data set [1] (setting [2]) is 169 nm. In the data set on EPO mRNA (setting [2]), the “Nucleic acid encapsulation rate (%)” value was 62%.

Take `CCCCCC(CCCCC)COC(=O)CCCCN(C(=O)OCCN(CCOC(=O)N(CCCCC(=O)OCC(CCCCC)CCCCC)C(C)C)CCN(CC)CC)C(C)C` [Example 13, Bis(2-pentylheptyl) 11-(2-(diethylamino)ethyl)-6,16-diisopropyl-7,15-dioxo-8,14-dioxa-6,11,16-triazahenicosanedioate]: in data set [1] (setting [2]), the “Particle size (nm)” value is listed as 188 nm. Moreover, the “Nucleic acid encapsulation rate (%)” value in the data set with EPO mRNA (setting [2]) is listed as 88%.

With `CCCCCC(CCCCC)COC(=O)CCCCN(C(=O)OCCN(CCCN(CC)CC)CCOC(=O)N(CCCCC(=O)OCC(CCCCC)CCCCC)C(C)C)C(C)C` [Example 14, Bis(2-pentylheptyl) 11-(3-(diethylamino)propyl)-6,16-diisopropyl-7,15-dioxo-8,14-dioxa-6,11,16-triazahenicosanedioate], the “Particle size (nm)” value in data set [1] (setting [2]) amounted to 185 nm. Also, the “Nucleic acid encapsulation rate (%)” value in the data set on EPO mRNA (setting [2]) turned out to be 97%.

In the case of `CCCCCC(CCCCC)COC(=O)CCCCN(CCC)C(=O)OCCN(CCOC(=O)N(CCC)CCCCC(=O)OCC(CCCCC)CCCCC)CCN(CC)CC` [Example 15, Bis(2-pentylheptyl) 11-(2-(diethylamino)ethyl)-7,15-dioxo-6,16-dipropyl-8,14-dioxa-6,11,16-triazahenicosanedioate], the “Particle size (nm)” value in data set [1] (setting [2]) turned out to be 238 nm. The “Nucleic acid encapsulation rate (%)” value with EPO mRNA (setting [2]) is listed as 79%.

As for `CCCCCC(CCCCC)COC(=O)CCCCN(CCC)C(=O)OCCN(CCCN(CC)CC)CCOC(=O)N(CCC)CCCCC(=O)OCC(CCCCC)CCCCC` [Example 16, Bis(2-pentylheptyl) 11-(3-(diethylamino)propyl)-7,15-dioxo-6,16-dipropyl-8,14-dioxa-6,11,16-triazahenicosanedioate], the “Particle size (nm)” value in data set [1] (setting [2]) turned out to be 187 nm. Moreover, in the data set with EPO mRNA (setting [2]), the “Nucleic acid encapsulation rate (%)” value was 93%.

For `CCCCCC(CCCCC)COC(=O)CCCCN(CC(C)C)C(=O)OCCN(CCOC(=O)N(CCCCC(=O)OCC(CCCCC)CCCCC)CC(C)C)CCN(CC)CC` [Example 18, Bis(2-pentylheptyl) 11-(2-(diethylamino)ethyl)-6,16-diisobutyl-7,15-dioxo-8,14-dioxa-6,11,16-triazahenicosanedioate], the “Particle size (nm)” value in data set [1] (setting [2]) was found to be 224 nm. For the same compound, the “Nucleic acid encapsulation rate (%)” value in the data set on EPO mRNA (setting [2]) is 43%.

For the compound `CCCCCC(CCCCC)COC(=O)CCCCN(CCCC)C(=O)OCCN(CCOC(=O)N(CCCC)CCCCC(=O)OCC(CCCCC)CCCCC)CCN(CC)CC` [Example 21, Bis(2-pentylheptyl) 6,16-dibutyl-11-(2-(diethylamino)ethyl)-7,15-dioxo-8,14-dioxa-6,11,16-triazahenicosanedioate], the “Particle size (nm)” value in data set [1] (setting [2]) was found to be 230 nm. Also, the “Nucleic acid encapsulation rate (%)” value in the data set with EPO mRNA (setting [2]) amounted to 64%.

Regarding `CCCCCCCCCCCCOC(=O)CN(CC(=O)OCCCCCCCCCCCC)C(=O)OCCN(CCOC(=O)N(CC(=O)OCCCCCCCCCCCC)CC(=O)OCCCCCCCCCCCC)CCN(CC)CC` [Example 32, didodecyl 8-(2-(diethylamino)ethyl)-3,13-bis(2-(dodecyloxy)-2-oxoethyl)-4,12-dioxo-5,11-dioxa-3,8,13-triazapentadecanedioate], the “Particle size (nm)” value in data set [1] (setting [2]) is 203 nm. Also, in the data set with EPO mRNA (setting [2]), the “Nucleic acid encapsulation rate (%)” value is recorded as 60%.

For `CCCCCCCCCCCCCOC(=O)CN(CC(=O)OCCCCCCCCCCCCC)C(=O)OCCN(CCOC(=O)N(CC(=O)OCCCCCCCCCCCCC)CC(=O)OCCCCCCCCCCCCC)CCN(CC)CC` [Example 34, Ditridecyl 8-(2-(diethylamino)ethyl)-4,12-dioxo-3,13-bis(2-oxo-2-(tridecyloxy)ethyl)-5,11-dioxa-3,8,13-triazapentadecanedioate], the “Particle size (nm)” value in data set [1] (setting [2]) was found to be 332 nm. The “Nucleic acid encapsulation rate (%)” value in the data set with EPO mRNA (setting [2]) came out at 33%.
